Experimental findings from patent publication US7858577B2, “Use of the long pentraxin PTX3 for the treatment of diseases caused by an altered activation of the growth factor FGF-2” (Sigma-Tau Industrie Farmaceutiche Riunite S.p.A., priority 2000, dated 2010) are described below.

In experiment [1] the target is T1, FGF-2 (Homo sapiens, UniProt P09038).
T1 construct: made in house
Nature of the experiment: 125I-FGF-2 binding to plastic immobilised proteins. To be noted: wells coated with 200 nM PTX3 or CRP or 2 μg/ml control proteins; 30 ng 125I-FGF-2, 2 h room temperature. On the procedure:
96 wells plates were coated at 4° C. with 100 μl of NaHCO3 pH 9.6 containing PTX3 or C reactive protein (200 nM) or alternatively 2 μg/ml of the following proteins used as negative control: bovine serum albumin, fibronectin, gelatine or laminin. After incubation, wells were washed 3 times with PBS and blocked 2 h at room temperature with 200 μl of 1 mg/ml of BSA in PBS. At the end of incubation wells were washed 3 times with PBS and subsequently incubated with 30 ng of ^125I-FGF-2 for 2 h at room temperature. Wells were subsequently washed 3 times with PBS and bound ^125I-FGF-2 was recovered by washing each well twice with 200 μl of 2% SDS in water. Levels of ^125I-FGF-2 were measured in a gamma counter.

The subject of experiment [2] is high affinity receptors (FGFR) on GM7373 cells. The experiment in a line: Effect of PTX3 on 125I-FGF-2 binding to high affinity receptors on endothelial cells. It counts as cell-based, bovine. The note with it: 125I-FGF-2 10 ng/ml, 2 h at 4° C., increasing concentrations of PTX3. As to the method: Transformed foetal bovine aortic endothelial cells GM7373 were seeded at 80,000 cells/cm^2 in 24-well dishes in Eagle's minimal essential medium (Eagle's MEM) containing 10% FCS. After 24 h at 37° C. adherent cells were washed twice with Eagle's MEM without FCS and subsequently incubated for 2 h at 4° C. with ^125I-FGF-2 (10 ng/ml) in Eagle's MEM containing 0.15% gelatine and 20 mM HEPES pH 7.5 in the absence or in the presence of increasing concentrations of PTX3. At the end of incubation the amount of ^125I-FGF-2 bound to low (HSPGs) and high affinity receptors (FGFR) was evaluated as described by Moscatelli, 1987 J. Cell. Physiol. 131:123-30. Briefly cells were rinsed twice with 2 M NaCl in 20 mM HEPES buffer (pH 7.5) to remove ^125I-FGF-2 bound to low-affinity binding sites and twice with 2 M NaCl in 20 mM sodium acetate (pH 4.0) to remove ^125I-FGF-2 bound to high-affinity binding sites. Non-specific binding was measured in the presence of a 100-fold molar excess of unlabeled FGF-2 and subtracted from all the values.

Experiment [3] has as its system FGF2MAE3F2T cells. The experiment in a line: Proliferation of FGF2MAE3F2T clones over-expressing PTX3. The format is cell-based, murine. The note with it: clones transfected with human PTX3 full length cDNA (pLXSH) vs parental cells, 0.4% FCS. On the procedure:
(§1) Murine endothelial cells overexpressing FGF-2, named FGF2MAE3F2T (Gualandris et al. 1996, Cell Growth Diff. 7:147-60) were transfected with human PTX3 full length cDNA subcloned in the commercial expression vector pLXSH (Clontech).
(§2) In vitro studies on the transfected cell lines obtained were, performed to study the effect of PTX3 over-expression on FGF-2-dependent proliferation of FGF2MAE3F2T cells and their invasive behaviour on three-dimensional fibrin gels.
After 24 h at 37° C., adherent cells were washed twice with DMEM without FCS and incubated for different period of time at 37° C. in DMEM containing 0.4% FCS. At the end of incubations cells were trypsinized and counted in a Burker chamber.

The subject of experiment [4] is MAE3F2T cells. The experiment in a line: Effect on FGF-2 dependent autocrine proliferation of MAE3F2T cells. To be noted: 72 h in 0.4% FCS; PTX3 70 nM, suramin 50 μg/ml, anti FGF-2 antibodies; cell counting. The format is cell-based, murine. As to the method:
In this experiment we have investigated the effect of PTX3 on the proliferation of the murine aortic endothelial cell line MAE3F2T stably transfected with an expression vector coding for FGF-2 (Gualandris et al. 1996, Cell Growth Diff. 7:147-60). These cells can proliferate in response to a autocrine loop of stimulation induced by endogenous FGF-2 (Gualandris et al. 1996, Cell Growth Diff. 7:14760). MAE3F2T cells were seeded at 10,000/cm^2 in 48-well plates in Dulbecco medium (DMEM) added with 10% FCS. After 24 h at 37° C., adherent cells were washed twice with DMEM without FCS and incubated for 72 at 37° C. in DMEM containing 0.4% FCS in the presence or not of PTX3 (70 nM), anti FGF-2 specific antibodies or suramin (50 μg/ml). Suramin is known for its capacity to sequestrate extracellular FGF-2 and inhibits its biological activities (Rusnati et al., 1996, Mol. Biol. Cell. 7:369-381). At the end of incubation cells were trypsinized and counted in a Burker chamber.

Experiment [5] has as its system FGF2MAE3F2T cells. Nature of the experiment: Invasive behaviour of PTX3 over-expressing FGF2MAE3F2T clones on three-dimensional fibrin gels. It counts as cell-based, murine. To be noted: PTX3 over-expressing clones (cDNA transfection) vs parental cells, after 2 days, image analysis.
From the text: as §1, §2
To evaluate the invasive behaviour of FGF2MAE3F2T clones over-expressing PTX3 on three-dimensional fibrin gels, cell aggregates were prepared on agarose-coated plates exactly as described (Gualandris et al. 1996, Cell Growth Diff. 7:147-60). These aggregates were seeded onto fibrin-coated 48 well-plates. Immediately after seeding, 250 µl of calcium-free medium containing fibrinogen (2.5 mg/ml) and thrombin (250 mU/ml) were added to each well and allowed to gel for 5 min at 37° C. Then, […] of culture medium were added on the top of the gel. In all the, experiments, the fibrinolytic inhibitor trasylol was added to the gel and to the culture medium at 200 KIU/ml to prevent the dissolution of the substrate. Formation of radially growing cell sprouts was evaluated after 2 days by computerized image analysis.

T1 sequence (P09038 134-288): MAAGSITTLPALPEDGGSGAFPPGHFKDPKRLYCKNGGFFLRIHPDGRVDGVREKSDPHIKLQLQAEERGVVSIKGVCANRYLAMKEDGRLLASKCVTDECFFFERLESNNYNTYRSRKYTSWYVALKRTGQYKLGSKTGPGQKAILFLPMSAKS

Take “PTX3: long pentraxin PTX3; preferred is human PTX3, sequence described in WO99/32516; produced as by Bottazzi et al. 1997”: the “binding of 125I-FGF-2 to plastic immobilised protein” value in experiment [1] is “FGF-2 binds plastic immobilised PTX3”. Besides, the “inhibition of FGF-2 binding to high-affinity receptors on endothelial cells” value in experiment [2] is recorded as “able to inhibit in a dose-dependent manner”. The “effect of PTX3 over-expression on FGF2MAE3F2T cells proliferation” value in experiment [3] was “inhibits FGF2MAE3F2T cells proliferation”. For the same substance, the “inhibition of FGF-2 dependent proliferation of MAE3F2T cells” value in experiment [4] is “inhibiting their FGF-2 dependent proliferation”. The “invasive capacity on fibrin gels (radially growing cell sprouts)” value in experiment [5] is on record as “significantly lower”.
